Assay results: PubChem BioAssay AID743510 (Broad Institute, 2014)
The source made the active and inactive calls.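 The calls were made as follows: active = compounds that block bursicon-driven reporter light with an IC50 below a set limit; inactive = IC50 above that limit.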

What follows are compounds tested against Bursicon receptor LGR2 (rickets), Drosophila melanogaster (assay: inhibition of bursicon-stimulated LGR2 cAMP signaling – cell-based, HEK293, CRE-luciferase, beta-gal normalized, dry powder, dose response (AID 743510)). Settings: antagonist luminescence.
With `C[C@@H]1CN([C@@H](C)CO)C(=O)c2cc(NC(=O)C3CCCCC3)ccc2O[C@@H](C)CCCCO[C@@H]1CN(C)C(=O)Nc1cccc2ccccc12` the IC50 was > 35 µM (inactive).
`C[C@@H]1CCCCO[C@@H](CN(C)C(=O)Nc2cccc3ccccc23)[C@H](C)CN([C@H](C)CO)C(=O)c2cc(NC(=O)C3CCCCC3)ccc2O1` was tested, and the IC50 was > 35 µM (inactive).
`C[C@@H]1CCCCO[C@H](CN(C)C(=O)Nc2cccc3ccccc23)[C@H](C)CN([C@@H](C)CO)C(=O)c2cc(NC(=O)C3CCCCC3)ccc2O1` was tested, and the IC50 was > 35 µM (inactive).
`C[C@@H]1CCCCO[C@H](CN(C)C(=O)Nc2cccc3ccccc23)[C@@H](C)CN([C@H](C)CO)C(=O)c2cc(NC(=O)C3CCCCC3)ccc2O1` was tested, and the IC50 was > 35 µM (inactive).
With `C[C@@H]1CN([C@H](C)CO)C(=O)c2cc(NC(=O)C3CCCCC3)ccc2O[C@@H](C)CCCCO[C@H]1CN(C)C(=O)Nc1cccc2ccccc12` the IC50 was > 35 µM (inactive).
`Cc1ccc(NC(=O)N(C)C[C@@H]2OCCCC[C@H](C)Oc3ccc(NC(=O)C4CCCCC4)cc3C(=O)N([C@H](C)CO)C[C@@H]2C)cc1` was tested, and the IC50 was < 35 µM.
`C[C@H]1CCCCO[C@@H](CN(C)C(=O)Nc2cccc3ccccc23)[C@@H](C)CN([C@@H](C)CO)C(=O)c2cc(NC(=O)C3CCCCC3)ccc2O1` was tested, and the IC50 was < 35 µM.
For `CC(=O)Nc1ccc2c(c1)C(=O)N([C@H](C)CO)C[C@H](C)[C@H](CN(C)C(=O)Nc1ccc(F)cc1)OCCCC[C@H](C)O2`, the IC50 was > 35 µM (inactive).
In the case of `C[C@@H]1CN([C@H](C)CO)C(=O)c2cc(NC(=O)C3CCCCC3)ccc2O[C@@H](C)CCCCO[C@@H]1CN(C)C(=O)Nc1cccc2ccccc12`, the IC50 is reported as > 35 µM (inactive).
In the case of `C[C@H](CO)N1C[C@H](C)[C@H](CN(C)C(=O)Nc2ccc3ccccc3c2)OCCCC[C@H](C)Oc2ccc(NC(=O)C3CCCCC3)cc2C1=O`, the IC50 is reported as < 35 µM.
`C[C@H]1CCCCO[C@H](CN(C)C(=O)Nc2cccc3ccccc23)[C@@H](C)CN([C@@H](C)CO)C(=O)c2cc(NC(=O)C3CCCCC3)ccc2O1` was tested, and the IC50 was > 35 µM (inactive).
With `C[C@@H]1CN([C@@H](C)CO)C(=O)c2cc(NC(=O)C3CCCCC3)ccc2O[C@@H](C)CCCCO[C@H]1CN(C)C(=O)Nc1cccc2ccccc12` the IC50 was < 35 µM.
With `C[C@@H]1CCCCO[C@@H](CN(C)C(=O)Nc2cccc3ccccc23)[C@@H](C)CN([C@H](C)CO)C(=O)c2cc(NC(=O)C3CCCCC3)ccc2O1` the IC50 was > 35 µM (inactive).
`C[C@@H]1CCCCO[C@H](CN(C)C(=O)Nc2cccc3ccccc23)[C@@H](C)CN([C@@H](C)CO)C(=O)c2cc(NC(=O)C3CCCCC3)ccc2O1` was tested, and the IC50 was > 35 µM (inactive).
`C[C@H](CO)N1C[C@H](C)[C@H](CN(C)C(=O)Nc2ccccc2F)OCCCC[C@H](C)Oc2ccc(NC(=O)C3CCCCC3)cc2C1=O` was tested, and the IC50 was < 35 µM.
For `C[C@H](CO)N1C[C@H](C)[C@H](CN(C)C(=O)Nc2ccc(Cl)cc2)OCCCC[C@H](C)Oc2ccc(NC(=O)C3CCCCC3)cc2C1=O`, the IC50 was < 35 µM.
In the case of `C[C@H](CO)N1C[C@H](C)[C@H](CN(C)C(=O)Nc2cccc(F)c2)OCCCC[C@H](C)Oc2ccc(NC(=O)C3CCCCC3)cc2C1=O`, the IC50 is reported as < 35 µM.
In the case of `C[C@H](CO)N1C[C@H](C)[C@H](CN(C)C(=O)Nc2cccc3ccccc23)OCCCC[C@H](C)Oc2ccc(NC(=O)C3CCCCC3)cc2C1=O`, the IC50 is reported as < 35 µM.
In the case of `C[C@@H]1CCCCO[C@@H](CN(C)C(=O)Nc2cccc3ccccc23)[C@@H](C)CN([C@@H](C)CO)C(=O)c2cc(NC(=O)C3CCCCC3)ccc2O1`, the IC50 is reported as > 35 µM (inactive).
With `C[C@H](CO)N1C[C@H](C)[C@@H](CN(C)C(=O)Nc2cccc3ccccc23)OCCCC[C@H](C)Oc2ccc(NC(=O)C3CCCCC3)cc2C1=O` the IC50 was > 35 µM (inactive).
`C[C@@H]1CCCCO[C@@H](CN(C)C(=O)Nc2cccc3ccccc23)[C@H](C)CN([C@@H](C)CO)C(=O)c2cc(NC(=O)C3CCCCC3)ccc2O1` was tested, and the IC50 was > 35 µM (inactive).
In the case of `C[C@H](CO)N1C[C@H](C)[C@H](CN(C)C(=O)Nc2ccc(F)cc2)OCCCC[C@H](C)Oc2ccc(NC(=O)C3CCCC3)cc2C1=O`, the IC50 is reported as < 35 µM.
`C[C@@H]1CCCCO[C@H](CN(C)C(=O)Nc2cccc3ccccc23)[C@H](C)CN([C@H](C)CO)C(=O)c2cc(NC(=O)C3CCCCC3)ccc2O1` was tested, and the IC50 was > 35 µM (inactive).
With `C[C@H](CO)N1C[C@H](C)[C@H](CN(C)C(=O)Nc2ccc(F)cc2)OCCCC[C@H](C)Oc2ccc(NC(=O)C3CCCCCC3)cc2C1=O` the IC50 was < 35 µM.
`C[C@H](CO)N1C[C@H](C)[C@H](CN(C)C(=O)Nc2ccc(F)cc2)OCCCC[C@H](C)Oc2ccc(NC(=O)C3CCOCC3)cc2C1=O` was tested, and the IC50 was > 35 µM (inactive).
`C[C@H](CO)N1C[C@H](C)[C@H](CN(C)C(=O)Nc2ccc(F)cc2)OCCCC[C@H](C)Oc2ccc(NC(=O)C3CC3)cc2C1=O` was tested, and the IC50 was > 35 µM (inactive).
